Format in all cases: toxicity, cell-based
Data set [1] has as its system HEK-293T. In words: Incucyte cell viability with HEK293T. The settings on record: human, 10 µM, compound concentration 10 uM.
The subject of data set [2] is Fibroblast. In words: Incucyte cell viability with human fibroblast. The note with it: 10 µM, compound concentration 10 uM.
Data set [3] has as its system U2OS. Description: Incucyte cell viability with U2OS. The settings on record: human, 10 µM, compound concentration 10 uM.

Molecules are shown by their SMILES.
Further: unitless GR value; below 1 slowed growth and below 0 cell loss.

Regarding `COCCOCn1c(S(C)(=O)=O)nc2c1c(=O)n(C)c(=O)n2C`, the “Growth Rate” value in data set [1] (0 h, replicate number 1) turned out to be 0.35; in data set [1] (0 h, replicate number 2) it was 0.7; in data set [1] (18 h, replicate number 1), 0.74; in data set [1] (18 h, replicate number 2), 0.92; in data set [1] (24 h, replicate number 1) it was 0.86; in data set [1] (24 h, replicate number 2), 0.9. Besides, the “Growth Rate” value is given as -1 in data set [2] (0 h, replicate number 1); -0.48 in data set [2] (6 h, replicate number 1); -0.97 in data set [2] (6 h, replicate number 2); 0 in data set [2] (12 h, replicate number 1); 0.03 in data set [2] (12 h, replicate number 2); 0.05 in data set [2] (18 h, replicate number 1). In addition, the “Growth Rate” value in data set [2] (18 h, replicate number 2) was determined as 0.24; in data set [2] (24 h, replicate number 1), 0.45; in data set [2] (24 h, replicate number 2), 0.7; in data set [3] (0 h, replicate number 1), 0.81; in data set [3] (6 h, replicate number 1) it was 0.11; in data set [3] (12 h, replicate number 1) it was 0.55. In addition, the “Growth Rate” value amounted to 0.93 in data set [3] (18 h, replicate number 1) and 0.76 in data set [3] (24 h, replicate number 1).

Take `CO[C@H]1C[C@@H]2CC[C@@H](C)[C@@](O)(O2)C(=O)C(=O)N2CCCC[C@H]2C(=O)O[C@H]([C@H](C)C[C@@H]2CC[C@@H](O)[C@H](OC)C2)CC(=O)[C@H](C)/C=C(\C)[C@@H](O)[C@@H](OC)C(=O)[C@H](C)C[C@H](C)/C=C/C=C/C=C/1C` [SIROLIMUS]: the “Growth Rate” value in data set [1] (0 h, replicate number 1) is -0.78; in data set [1] (0 h, replicate number 2) it was -0.17; in data set [1] (6 h, replicate number 1), -0.13; in data set [1] (6 h, replicate number 2), 0.36; in data set [1] (12 h, replicate number 1), -0.06; in data set [1] (12 h, replicate number 2), 0.13. Besides, the “Growth Rate” value in data set [1] (18 h, replicate number 1) was 0.16; in data set [1] (18 h, replicate number 2) it was 0.23; in data set [1] (24 h, replicate number 1) it was 0.26; in data set [1] (24 h, replicate number 2), 0.3; in data set [2] (6 h, replicate number 1) it was 0.43; in data set [2] (12 h, replicate number 1), 0.47. Further, the “Growth Rate” value in data set [2] (12 h, replicate number 2) turned out to be 0.93; in data set [2] (18 h, replicate number 1), 0.23; in data set [2] (18 h, replicate number 2), 0.97; in data set [2] (24 h, replicate number 1), 0.35; in data set [2] (24 h, replicate number 2), 0.84; in data set [3] (0 h, replicate number 2), 0.94. In addition, the “Growth Rate” value is on record as 0.93 in data set [3] (12 h, replicate number 1); 0.81 in data set [3] (12 h, replicate number 2); 0.94 in data set [3] (24 h, replicate number 1).

Take `CCCCC[C@H](O)/C=C/[C@H]1[C@H](O)CC(=O)[C@@H]1CCCCCCC(=O)O` [ALPROSTADIL]: the “Growth Rate” value in data set [1] (0 h, replicate number 1) is reported as -0.3; in data set [1] (0 h, replicate number 2), 0.55; in data set [1] (6 h, replicate number 1), 0.47; in data set [1] (12 h, replicate number 1) it was 0.82; in data set [1] (12 h, replicate number 2), 0.97; in data set [1] (18 h, replicate number 2), 0.98. For the same compound, the “Growth Rate” value in data set [2] (0 h, replicate number 1) is on record as -1; in data set [2] (12 h, replicate number 2), 0.37; in data set [2] (18 h, replicate number 2), 0.79; in data set [2] (24 h, replicate number 2), 0.9; in data set [3] (0 h, replicate number 2), 0.57; in data set [3] (6 h, replicate number 1) it was 0.87. Also, the “Growth Rate” value turned out to be 0.94 in data set [3] (12 h, replicate number 1); 0.76 in data set [3] (12 h, replicate number 2); 0.76 in data set [3] (18 h, replicate number 2); 0.93 in data set [3] (24 h, replicate number 1); 0.92 in data set [3] (24 h, replicate number 2).

On to `CCc1nc(C2CCC2)n2nc(-c3ccccc3)[nH]c(=O)c12`, for which the “Growth Rate” value was -0.05 in data set [1] (0 h, replicate number 2); -0.09 in data set [1] (6 h, replicate number 1); 0.44 in data set [1] (12 h, replicate number 1); 0.76 in data set [1] (12 h, replicate number 2); 0.64 in data set [1] (18 h, replicate number 1); 0.76 in data set [1] (18 h, replicate number 2). The “Growth Rate” value is 0.75 in data set [1] (24 h, replicate number 1); 0.91 in data set [1] (24 h, replicate number 2); -0.72 in data set [2] (6 h, replicate number 2); -0.29 in data set [2] (12 h, replicate number 2); 0.5 in data set [2] (18 h, replicate number 2); 0.86 in data set [2] (24 h, replicate number 2). Moreover, the “Growth Rate” value in data set [3] (0 h, replicate number 1) is recorded as 0.68; in data set [3] (6 h, replicate number 1), 0.84; in data set [3] (18 h, replicate number 2) it was 0.95.

On to `N#Cc1cccc(-c2c[nH]c3ncnc(N4CCOCC4)c23)c1`, for which the “Growth Rate” value in data set [1] (0 h, replicate number 1) is on record as -0.86; in data set [2] (0 h, replicate number 1), -0.42; in data set [2] (0 h, replicate number 2), -0.76; in data set [3] (6 h, replicate number 1) it was 0.91; in data set [3] (12 h, replicate number 1), 0.88; in data set [3] (18 h, replicate number 1), 0.31. The “Growth Rate” value in data set [3] (18 h, replicate number 2) came out at 0.94; in data set [3] (24 h, replicate number 1), 0.97; in data set [3] (24 h, replicate number 2), 0.98.

In the case of `Cc1c(-c2cc(-c3ccccc3Cl)no2)cnn1C1CCNCC1.Cl`, the “Growth Rate” value in data set [1] (6 h, replicate number 1) is recorded as -0.95; in data set [1] (6 h, replicate number 2) it was -0.85; in data set [1] (12 h, replicate number 1) it was -0.84; in data set [1] (12 h, replicate number 2) it was -0.43; in data set [1] (18 h, replicate number 1), -0.72; in data set [1] (18 h, replicate number 2) it was -0.18. Also, the “Growth Rate” value in data set [1] (24 h, replicate number 1) is given as -0.68; in data set [1] (24 h, replicate number 2) it was -0.15; in data set [2] (0 h, replicate number 1) it was 0.68; in data set [2] (6 h, replicate number 1), 0.11; in data set [2] (6 h, replicate number 2), -1; in data set [2] (12 h, replicate number 1) it was -1. The “Growth Rate” value in data set [2] (12 h, replicate number 2) is -0.55; in data set [2] (18 h, replicate number 2), -0.4; in data set [2] (24 h, replicate number 1), 0.83; in data set [2] (24 h, replicate number 2), -0.36; in data set [3] (0 h, replicate number 2), -1; in data set [3] (6 h, replicate number 1), 0.45. For the same compound, the “Growth Rate” value in data set [3] (6 h, replicate number 2) worked out at 0.01; in data set [3] (12 h, replicate number 1), 0.76; in data set [3] (12 h, replicate number 2) it was 0.66; in data set [3] (18 h, replicate number 1), 0.87; in data set [3] (18 h, replicate number 2), 0.68; in data set [3] (24 h, replicate number 1), 0.89. Further, in data set [3] (24 h, replicate number 2), the “Growth Rate” value amounted to 0.75.

Regarding `CC1(C)CC(=O)c2c(SCCO)sc(-c3nccs3)c2C1`, the “Growth Rate” value in data set [1] (0 h, replicate number 2) is reported as 0.82; in data set [2] (0 h, replicate number 2), -0.3; in data set [2] (6 h, replicate number 1), -1; in data set [3] (6 h, replicate number 1), 0.66; in data set [3] (12 h, replicate number 1) it was 0.87; in data set [3] (18 h, replicate number 1), 0.97. For the same compound, in data set [3] (24 h, replicate number 2), the “Growth Rate” value was 0.97.

With `CC[C@@H](Nc1c(C#N)c(-c2ccc(-c3cccc(C)c3F)cc2)nc2cnccc12)C(=O)O` [BAY-091], the “Growth Rate” value in data set [1] (0 h, replicate number 2) turned out to be 0.76; in data set [1] (6 h, replicate number 1), 0.68; in data set [1] (6 h, replicate number 2), 0.63; in data set [1] (12 h, replicate number 1), 0.65; in data set [1] (12 h, replicate number 2), 0.85; in data set [1] (18 h, replicate number 1), 0.86. The “Growth Rate” value is 0.85 in data set [1] (18 h, replicate number 2); 0.78 in data set [1] (24 h, replicate number 1); 0.88 in data set [1] (24 h, replicate number 2); -0.38 in data set [2] (0 h, replicate number 1); -0.33 in data set [2] (0 h, replicate number 2); 0.59 in data set [2] (6 h, replicate number 1). Besides, the “Growth Rate” value is recorded as 0.39 in data set [2] (6 h, replicate number 2); 0.86 in data set [2] (12 h, replicate number 1); 0.58 in data set [2] (12 h, replicate number 2); 0.96 in data set [2] (18 h, replicate number 1); 0.73 in data set [2] (18 h, replicate number 2); 0.88 in data set [2] (24 h, replicate number 1). Besides, the “Growth Rate” value in data set [2] (24 h, replicate number 2) is listed as 0.84; in data set [3] (6 h, replicate number 1), 0.82; in data set [3] (12 h, replicate number 1) it was 0.7; in data set [3] (18 h, replicate number 1), 0.68; in data set [3] (24 h, replicate number 1), 0.81.

For `NS(=O)(=O)c1ccc(Nc2nc(OCC3CCCCC3)c3nc[nH]c3n2)cc1`, the “Growth Rate” value in data set [1] (0 h, replicate number 1) is 0.76; in data set [1] (12 h, replicate number 2) it was 0.98; in data set [1] (18 h, replicate number 2), 0.9; in data set [1] (24 h, replicate number 2), 0.82; in data set [2] (0 h, replicate number 1), -1; in data set [2] (12 h, replicate number 2), 0.55. Further, the “Growth Rate” value in data set [2] (18 h, replicate number 2) is given as 0.56; in data set [3] (0 h, replicate number 1), -0.84; in data set [3] (6 h, replicate number 1) it was -0.3; in data set [3] (12 h, replicate number 1), 0.53; in data set [3] (18 h, replicate number 1), 0.8; in data set [3] (18 h, replicate number 2), 0.94. The “Growth Rate” value is 0.87 in data set [3] (24 h, replicate number 1) and 0.93 in data set [3] (24 h, replicate number 2).

For the compound `COc1ccc(-n2c(C)c([N+](=O)[O-])c3ccc(O)cc32)cc1`, the “Growth Rate” value in data set [1] (0 h, replicate number 1) is recorded as 0.26; in data set [1] (0 h, replicate number 2), -0.46; in data set [2] (0 h, replicate number 2) it was 0.13; in data set [2] (18 h, replicate number 1), -0.35; in data set [3] (12 h, replicate number 2), 0.65; in data set [3] (18 h, replicate number 1), 0.88. For the same compound, the “Growth Rate” value in data set [3] (18 h, replicate number 2) is given as 0.61; in data set [3] (24 h, replicate number 1), 0.91; in data set [3] (24 h, replicate number 2), 0.77.

Regarding `CCS(=O)(=O)Nc1cccc(Oc2cc(F)cc(Nc3ccc(I)cc3F)c2NS(=O)(=O)C2CC2)c1`, the “Growth Rate” value in data set [1] (6 h, replicate number 1) was 0.37; in data set [1] (6 h, replicate number 2) it was -0.1; in data set [1] (12 h, replicate number 1) it was 0.34; in data set [1] (12 h, replicate number 2) it was 0.42; in data set [1] (18 h, replicate number 1), 0.6; in data set [1] (18 h, replicate number 2) it was 0.5. In addition, the “Growth Rate” value was 0.61 in data set [1] (24 h, replicate number 1); 0.48 in data set [1] (24 h, replicate number 2); -1 in data set [2] (0 h, replicate number 1); 0.69 in data set [2] (0 h, replicate number 2); 0.24 in data set [2] (6 h, replicate number 1); -0.17 in data set [2] (6 h, replicate number 2). Moreover, the “Growth Rate” value stood at 0.85 in data set [3] (6 h, replicate number 1); 0.89 in data set [3] (12 h, replicate number 1); 0.78 in data set [3] (12 h, replicate number 2); 0.91 in data set [3] (18 h, replicate number 1); 1 in data set [3] (18 h, replicate number 2); 0.78 in data set [3] (24 h, replicate number 1).

(Values after ChEMBL document CHEMBL5303304, “EUbOPEN Chemogenomics Library - IncuCyte” (2023).)
